According to PubChem BioAssay AID1241 (SRMLSC, 2008):

assay: compounds inducing NF-kB luciferase expression – cell-based, SH-SY5Y, dose response (AID 1241); conditions: SH-SY5Y NF-kB promoter luciferase reporter, fold induction

Compound	EC50
Cc1ccc2nc(-c3ccc(NC(=O)CCN4C(=O)c5ccccc5C4=O)cc3)sc2c1	155 nM
CCOc1ccc2nc(C(=O)N3CCCC(C)C3)sc2c1 (stereo not drawn)	3300 nM
O=C(/C=C/Nc1ccc(F)c(F)c1)c1ccc(Br)cc1	3910 nM
CCOC(=O)c1sc(NC(=O)Nc2ccccc2)cc1C	753 nM
O=C(c1ccc(Cl)cc1)c1coc2ccc(O)cc12	3200 nM
CCOc1cccc2cc(-c3csc(NC(=O)CCC(=O)NCCN4CCCCC4C)n3)c(=O)oc12 (stereo not drawn)	2760 nM
Oc1c(-c2cc(-c3ccco3)[nH]n2)ccc2ccccc12	5560 nM
O=C(Nc1ccc(Cl)cn1)c1cc2ccccc2o1	2430 nM
COc1cccc(NC(=O)C(=S)NC2CCCCC2)c1	4220 nM
Cc1ccsc1/C=C1\CCC(C2CCCC2)C1=O (stereo not drawn)	5840 nM
CCOc1ccc(-c2nc(-c3cccnc3)no2)cc1	906 nM
Fc1ccccc1OCCSc1nnnn1-c1ccccc1	1240 nM
O=C(Cc1ccccc1)Nc1nc2ccccc2s1	29500 nM
CC(C)(C)c1ccc(C(=O)Nc2cnccn2)cc1	1120 nM
O=C(Nc1ccc2c(c1)OCCO2)c1ccc2ccccc2n1	1440 nM
Cc1cc(C)n2cc(COc3ccc4ccccc4c3)nc2n1	1830 nM
CN(C)C(=S)Nc1nc2ccccc2s1	15100 nM
Cc1nc(Sc2nnnn2C)c2c3c(sc2n1)CCC3	1590 nM
O=C(Nc1ccc2c(c1)OCO2)c1ccc2c(c1)OCO2	1230 nM
CCCCCc1ccc(-c2ccc(C(=O)O)cc2)nc1	1410 nM
O=C(Nc1nc2ccccc2s1)NC1CCCCC1	2420 nM
Cc1ccc(NC(=O)c2cc3ccccc3o2)cc1S(=O)(=O)N(C)C	2040 nM
Cc1c(C(=O)N2CCc3ccccc32)oc2ccccc12	3370 nM

Compound	EC50
COc1ccc2c(c1OC)C(=O)OC2Nc1nc(-c2ccc(-c3ccccc3)cc2)cs1 (stereo not drawn)	2980 nM
CCOc1ccc2nc(NC(=S)N(C)C)sc2c1	17300 nM
Cc1c(C(=O)Nc2nc3ccccc3[nH]2)oc2ccccc12	1380 nM
COc1cccc(-c2cc(C(=O)Nc3cccc(O)c3)no2)c1	498 nM
c1ccc(COc2ccc(OCCCn3cncn3)cc2)cc1	19800 nM
COc1ccc(C(=O)/C=C/Nc2cccc(O)c2)cc1	986 nM
O=C(CSc1nnnn1-c1ccccc1)Nc1nsc(-c2ccccc2)n1	14200 nM
O=C(Nc1ccc2nsnc2c1)c1ccc2c(c1)OCO2	1850 nM
Cc1nc2ccc(-c3nc4ccccc4o3)cc2[nH]1	3300 nM
O=C(Cc1nc(=O)c2ccccc2s1)Nc1ccccc1	220 nM
Oc1ccc(N=Nc2n[nH]c(-c3ccccc3)n2)cc1	3990 nM
Nc1nc(-c2ccccc2)nc2sc3c(c12)CCCC3	873 nM
Cc1ccc2nc(NC(=O)c3cccs3)sc2c1	389 nM
Clc1cccc(Cl)c1/C=C/c1nc2ccccc2[nH]1	1190 nM
O=C(NCCC1=CCCCC1)c1ccc(Cl)cc1	198 nM
Cc1ccccc1OCC(=O)Nc1cccc(C(=O)O)c1	4050 nM
Cc1sc(NC(=O)c2ccco2)nc1-c1ccccc1	2770 nM
O=C1CCOc2cc(OCc3ccccc3)ccc21	824 nM
CC(C)(C)c1ccc(C(=O)/C=C2\NC(=O)CS2)cc1	1140 nM
Cc1ccc(C2=NN(S(C)(=O)=O)C(c3ccc4c(c3)OCO4)C2)cc1 (stereo not drawn)	2650 nM
Cc1c(C(=O)NC2=NCCS2)oc2ccccc12	1030 nM
COCCNC(=O)/C(C#N)=C/c1cc(C)n(-c2ccc(C)cc2)c1C	5600 nM
S=C(Nc1ccccn1)c1ccccn1	2030 nM

Compound	EC50
O=C(/C=C/Nc1ccc(F)c(F)c1)c1cccs1	963 nM
Cc1ccccc1Nc1nc(N)nc(CSc2ccc(F)cc2)n1	6450 nM
Cc1cnc(NC(=O)Nc2ccc(Cl)cc2)s1	24000 nM
CCOC(=O)c1sc(=NC(=O)c2ccccc2)n(C)c1C	2230 nM
COc1cccc(/C=N/Nc2nccnc2Cl)c1O	2170 nM
CCOC(=O)CSc1nc(-c2ccncc2)ccc1C#N	6770 nM
N#C/C(=N\Nc1ccc(F)cc1)C(=N)N1CCCCCC1	2170 nM
Nc1ccc(O)cc1C(=O)OCC(=O)c1ccc(C2CCCCC2)cc1	3910 nM
Cc1ccc2oc(-c3cccc(N)c3)nc2c1	660 nM
Nc1nc2ccc(-c3nc4ccccc4o3)cc2s1	1390 nM
COc1cccc(-c2nc3ccccc3s2)c1	10900 nM
Brc1ccc(-c2ncc(-c3ccccc3)cn2)cc1	3870 nM
O=C(NCCC1=CCCCC1)Nc1ccc2nsnc2c1	4770 nM
Nc1ccc(Nc2nc(-c3cc4ccccc4oc3=O)cs2)cc1	2020 nM
COc1ccc(NC(=O)N2CCc3ccccc32)cc1	697 nM
c1ccc(N2CCN(c3cnc4ccccc4n3)CC2)cc1	1610 nM
COc1cccc(N/C=C/C(=O)c2ccc(Cl)cc2)c1	652 nM
O=C(NC1CCCCCCC1)c1ccc2c(c1)OCO2	11000 nM
Clc1ccc(-c2nnc(-c3ccccc3Cl)o2)cc1	2360 nM
O=C(/C=C/Nc1ccccc1C(F)(F)F)c1ccco1	1470 nM
CC(C)Oc1ccc(C(=O)NC2=NCCS2)cc1	1870 nM
c1ccc(CSCc2cn3ccsc3n2)cc1	12600 nM
